Measured values taken from publication PMC7259638, “Characterization of the intestinal absorption of morroniside from Cornus officinalis Sieb. et Zucc via a Caco-2 cell monolayer model” (PLoS ONE, 2020).
Where two headings read alike, the source gives them in different places.

Legend:
[1] = Effects of influx/efflux transporter inhibitors and CO on morroniside transport in Caco-2 cell monolayers; assay type: in vitro ADME, human; conditions: human; for efflux ratio at 180 min, 25 μM: read-out: Efflux ratio P
Description: (§1) An initial stock solution of morroniside in methanol was prepared. The stock solution was then diluted with HBSS (pH = 7.4) and the final concentration of methanol in HBSS remained at 0.5%. […] Caco-2 cells were seeded at a density of 5 × 10^4 cells/cm^2 in a 12-well plate. The transepithelial electrical resistance (TEER) value was measured with a Millipore ERS voltameter (Burlington, MA, USA) in order to evaluate and determine monolayer integrity. The monolayers were ready for experiments 19 to 22 days after seeding.
(§2) During incubation, the culture medium was refreshed every other day. The culture medium was discarded, and 500 μL of HBSS was added to each well and incubated for 20 min at 37 °C. Afterward, each well was rinsed two times with HBSS at 37 °C. Three concentrations of morroniside (5, 25 and 100 μM) were added to either the apical (AP, 0.5 mL) or basolateral side (BL, 1.5 mL), wheras the receiving chamber contained the corresponding volume of blank HBSS medium (pH = 7.4). Incubation was performed at 37 °C for 180 min, with shaking at 50 rpm. To assess drug transport from the AP to BL side, after incubation for 5, 15, 30, 45, 60, 90, 120 or 180 min, 50 μL of the solution from the BL or AP side was collected, and replaced with an equal volume of HBSS. To study the effect of pH on morroniside (5, 25 and 100 μM) transport, the experiments were performed in HBSS, which was adjusted to pH 6.0 or pH 7.4 on the AP side depending on the experiment, and to pH 7.4 on the BL side at 37 °C.
(§3) Efflux and influx transporters were investigated for their effects on the transport flux of morroniside. Several ATP-binding cassette transporter inhibitors, including one p-glycoprotein (P-gp) inhibitor (100μM verapamil); one multidrug resistance- related protein (MRP) inhibitor (100 μM, MK571), one multidrug resistance- related protein 3 (MRP3, the main BL MRP) inhibitor ([…]) and one multidrug resistance- related protein 2 (MRP2, the main AP MRP) inhibitor (200μM indomethacin); and one breast cancer resistance protein (BCRP) inhibitor (25μM apigenin) were used to determine the transporters involved in the efflux transport of morroniside. The inhibition of the influx transport of morroniside transport across the Caco-2 cell monolayer was investigated by the addition of 50 μM sodium vanadate and cimetidine to evaluate the selectivity of Na/K-ATPase. The pH and temperature conditions of this assay were 7.4 and 37 °C, respectively.
(§4) UPLC-MS/MS data acquisition was performed using Analyst 1.5.2 and MultiQuant 2.1.1 software (Applied Biosystems). All data are shown as the mean ± standard deviation, n = 3. The data were analyzed using SPSS 20.0. In the Caco-2 cell model, the rate of transport was obtained from the amount transported versus the time curve using linear regression. The permeability coefficient of each compound was calculated using the following equation: Papp = (dQ/dt)/(A·C0).
(§5) where, dQ/dt is the rate of drug transport, C0 is the initial concentration of the compound in the donor chamber and A represents the surface area of the cell monolayer. The efflux ratio P was determined by calculating the ratio of Papp in the secretory (BA) direction divided by that in the absorptive (AB) direction, according to the following equation: P=PappBA/PappAB

[2] = system: BCRP; experiment: as above; assay type: in vitro ADME, human; conditions: human, 25 μM morroniside
Description: as §1, §2, §3, §4, §5

[3] = system: Caco-2 cell monolayers; experiment: as above; assay type: in vitro ADME, human; conditions: for PappAB (mean): AP to BL; for PappBA (mean): BL to AP; for PappAB / PappBA: pH 7.4, 37 °C
Description: as §1, §2, §3, §4, §5

[4] = system: MRP2; experiment: as above; assay type: in vitro ADME, human; conditions: human, 25 μM morroniside
Description: as §1, §2, §3, §4, §5

[5] = system: MRP3; experiment: as above; assay type: in vitro ADME, human; conditions: human, 25 μM morroniside
Description: as §1, §2, §3, §4, §5

[6] = system: MRP; experiment: as above; assay type: in vitro ADME, human; conditions: human, Caco-2, pH 7.4, with MK571 100 μM, 25 μM morroniside
Description: as §1, §2, §3, §4, §5

[7] = system: Na+/K+ pump (Na/K-ATPase); experiment: as above; assay type: in vitro ADME, human; conditions: human, Caco-2, pH 7.4, with sodium vanadate 50 μM, with 50 μM sodium vanadate (Na+/K+ pump); read-out: P (efflux ratio PappBA/PappAB)
Description: as §1, §2, §3, §4, §5

[8] = system: OATs; experiment: as above; assay type: in vitro ADME, human; conditions: human, Caco-2, pH 7.4, with cimetidine 50 μM, with 50 μM cimetidine (OATs); read-out: P (efflux ratio PappBA/PappAB)
Description: as §1, §2, §3, §4, §5

[9] = system: P-gp; experiment: as above; assay type: in vitro ADME, human; conditions: human, Caco-2, pH 7.4, with verapamil 100 μM, 25 μM morroniside; with verapamil 100 μM (P-gp inhibitor)
Description: as §1, §2, §3, §4, §5

[10] = design: method as in PMID 17596900, doi:10.1177/1934578X19856526; conditions: rats; oral vs intravenous; cited from earlier work
[11] = 25 μM morroniside, with verapamil 100 μM
[12] = after 0.63 mg/mL CO (containing 25 μM morroniside) was added
[13] = with 50 μM sodium vanadate (Na+/K+ pump)

Which efflux ratio at 180 min, 25 μM ([1]; Caco-2, pH 7.4, 25 μM morroniside, Control (no inhibitor)) does the source give for COC(=O)C1=CO[C@@H](O[C@@H]2O[C@H](CO)[C@@H](O)[C@H](O)[C@H]2O)[C@@H]2[C@H](C)O[C@@H](O)C[C@H]12 [morroniside, Morroniside] here?
The efflux ratio at 180 min, 25 μM was 1.61.

What about the efflux ratio at 180 min ([1]; Caco-2, pH 7.4, Control (no inhibitor), influx transporter experiment, read-out: P (efflux ratio PappBA/PappAB)) of the same compound?
Its efflux ratio at 180 min is 1.6.

What about the efflux ratio at 180 min, 25 μM ([1]; Caco-2, pH 7.4, morroniside given as CO 0.63 mg/mL (containing 25 μM morroniside)) of the same compound?
Its efflux ratio at 180 min, 25 μM is 0.49.

And the Papp B→A at 180 min ([1]; Caco-2, Control (no inhibitor), influx transporter experiment, pH 7.4, 37 °C)?
The Papp B→A at 180 min was 3.06 ± 0.6 ×10⁻⁶ cm/s.

What about the efflux ratio at 180 min, 25 μM ([2]; Caco-2, pH 7.4, with apigenin 25 μM, with apigenin 25 μM (BCRP inhibitor), read-out: Efflux ratio P) of the same compound?
Its efflux ratio at 180 min, 25 μM is 0.45.

What about the Papp B→A at 180 min, 25 μM ([2]; Caco-2, pH 7.4, BL to AP, with apigenin 25 μM, read-out: PappBA (mean)) of the same compound?
Its Papp B→A at 180 min, 25 μM is 2.78 ×10⁻⁶ cm/s.

What about the PappAB (mean) ([3]; 25 μM morroniside, Control) of the same compound?
The PappAB (mean) was 1.9 ×10⁻⁶ cm/s.

What about the PappAB (mean) ([3]; 25 μM morroniside, with apigenin 25 μM) of the same compound?
Its PappAB (mean) is 6.12 ×10⁻⁶ cm/s.

And the PappAB (mean) [3, 11]?
Its PappAB (mean) is 1.84 ×10⁻⁶ cm/s.

And the PappBA (mean) ([3]; 25 μM morroniside, Control)?
The PappBA (mean) was 3.06 ×10⁻⁶ cm/s.

And the PappBA (mean) ([3]; 25 μM morroniside, with benzbromarone 50 μM)?
The PappBA (mean) was 3.04 ×10⁻⁶ cm/s.

And the PappBA (mean) [3, 11]?
Its PappBA (mean) is 2.93 ×10⁻⁶ cm/s.

What about the “change of PappAB vs control” value ([3]; 25 μM morroniside, after addition of apigenin (25 μM), p < 0.05) of the same compound?
The value was “increased significantly”.

What about the “decrease in the efflux ratio” value ([3]; 25 μM morroniside, after addition of apigenin (25 μM), vs control) of the same compound?
The value was 72.05%.

What about the “PappAB (mean)” value ([3]; morroniside given as CO 0.63 mg/mL (containing 25 μM morroniside), in 1e-6 cm/s) of the same compound?
The value was 4.284.

And the PappBA (mean) ([3]; morroniside given as CO 0.63 mg/mL (containing 25 μM morroniside))?
The PappBA (mean) was 2.11 ×10⁻⁶ cm/s.

And the PappAB ([3]; Control (no inhibitor), influx transporter experiment)?
Its PappAB is 1.90±0.5 ×10^-6cm/s.

What about the “change of PappAB vs control” value [3, 12] of the same compound?
Its value is “increased significantly”.

What about the “change of PappBA vs control” value [3, 12] of the same compound?
Its value is “not significantly different”.

And the “change of PappAB vs control” value ([3]; after MK 571 was added)?
Its value is “increased”.

What about the “change of PappBA vs control” value ([3]; after MK 571 was added) of the same compound?
Its value is “no effect”.

And the “change of AP to BL flux (PappAB) vs control” value ([3]; after indomethacin was added, p < 0.001)?
Its value is “significant increase”.

And the “change of PappAB and PappBA vs control” value ([3]; before and after addition of verapamil)?
Its value is “did not change significantly”.

And the “change of PappAB or PappBA vs control” value ([3]; cotreatment with 200 μM benzbromarone)?
The value was “did not alter”.

What about the BCRP substrate status ([3]; from effect of apigenin (25 μM, BCRP inhibitor)) of the same compound?
Its BCRP substrate status is “substrate of BCRP”.

What about the MRP2 substrate status ([3]; from effect of indomethacin (MRP2 inhibitor) on AP to BL flux) of the same compound?
The MRP2 substrate status was “substrate of MRP2”.

And the “P-gp involvement in transport” value ([3]; from effect of verapamil (P-gp inhibitor))?
Its value is “might not be involved”.

And the “change of morroniside transport vs control” value ([3]; with 50 μM cimetidine)?
Its value is “did not significantly increase or decrease”.

And the PappAB ([3]; with 50 μM cimetidine (OATs))?
Its PappAB is 1.82±0.5 ×10^-6cm/s.

And the PappBA ([3]; with 50 μM cimetidine (OATs))?
The PappBA was 3.1±0.7 ×10^-6cm/s.

And the “change of morroniside transport vs control” value ([3]; with 50 μM sodium vanadate)?
The value was “did not significantly increase or decrease”.

And the PappAB [3, 13]?
The PappAB was 1.89±0.4 ×10^-6cm/s.

What about the PappBA [3, 13] of the same compound?
The PappBA was 3.11±0.7 ×10^-6cm/s.

What about the efflux ratio at 180 min, 25 μM ([4]; Caco-2, pH 7.4, with indomethacin 200 μM, with indomethacin 200 μM (MRP2 inhibitor), read-out: Efflux ratio P) of the same compound?
The efflux ratio at 180 min, 25 μM was 0.26.

And the Papp A→B at 180 min, 25 μM ([4]; Caco-2, pH 7.4, AP to BL, with indomethacin 200 μM, read-out: PappAB (mean))?
The Papp A→B at 180 min, 25 μM was 12.8 ×10⁻⁶ cm/s.

And the Papp B→A at 180 min, 25 μM ([4]; Caco-2, pH 7.4, BL to AP, with indomethacin 200 μM, read-out: PappBA (mean))?
Its Papp B→A at 180 min, 25 μM is 3.3 ×10⁻⁶ cm/s.

And the efflux ratio at 180 min, 25 μM ([5]; Caco-2, pH 7.4, with benzbromarone 50 μM, with benzbromarone 50 μM (MRP3 inhibitor), read-out: Efflux ratio P)?
The efflux ratio at 180 min, 25 μM was 1.72.

And the Papp A→B at 180 min, 25 μM ([5]; Caco-2, pH 7.4, AP to BL, with benzbromarone 50 μM, read-out: PappAB (mean))?
The Papp A→B at 180 min, 25 μM was 1.77 ×10⁻⁶ cm/s.

And the efflux ratio at 180 min, 25 μM ([6]; with MK 571 100 μM (MRP inhibitor), read-out: Efflux ratio P)?
The efflux ratio at 180 min, 25 μM was 0.4.

What about the Papp A→B at 180 min, 25 μM ([6]; AP to BL, with MK 571 100 μM, read-out: PappAB (mean)) of the same compound?
Its Papp A→B at 180 min, 25 μM is 7.55 ×10⁻⁶ cm/s.

And the Papp B→A at 180 min, 25 μM ([6]; BL to AP, with MK 571 100 μM, read-out: PappBA (mean))?
Its Papp B→A at 180 min, 25 μM is 3.01 ×10⁻⁶ cm/s.

And the efflux ratio at 180 min [7]?
Its efflux ratio at 180 min is 1.65.

And the efflux ratio at 180 min [8]?
Its efflux ratio at 180 min is 1.7.

And the efflux ratio at 180 min, 25 μM [9]?
The efflux ratio at 180 min, 25 μM was 1.59.

And the absolute oral bioavailability [10]?
Its absolute oral bioavailability is 3.6–7.0%.
